Reference: patent US20110117038A1, “Dopa Oxidase Inhibitor, Skin-Lightening Agent and External Preparation for Skin” (Kao Corporation, priority 2009, published 2011)

Biological target: T1, dopa oxidase activity (tyrosinase) of human neonatal foreskin-derived melanocytes (Homo sapiens, UniProt P14679)
T1 construct: The cells were lysed for 3 hours at 4° C., and the dopa oxidase activity was measured; endogenous in cells; host or cells: human neonatal foreskin-derived melanocytes (primary), lysed with NP-40/SDS extraction buffer
T1 sequence (P14679 19-529): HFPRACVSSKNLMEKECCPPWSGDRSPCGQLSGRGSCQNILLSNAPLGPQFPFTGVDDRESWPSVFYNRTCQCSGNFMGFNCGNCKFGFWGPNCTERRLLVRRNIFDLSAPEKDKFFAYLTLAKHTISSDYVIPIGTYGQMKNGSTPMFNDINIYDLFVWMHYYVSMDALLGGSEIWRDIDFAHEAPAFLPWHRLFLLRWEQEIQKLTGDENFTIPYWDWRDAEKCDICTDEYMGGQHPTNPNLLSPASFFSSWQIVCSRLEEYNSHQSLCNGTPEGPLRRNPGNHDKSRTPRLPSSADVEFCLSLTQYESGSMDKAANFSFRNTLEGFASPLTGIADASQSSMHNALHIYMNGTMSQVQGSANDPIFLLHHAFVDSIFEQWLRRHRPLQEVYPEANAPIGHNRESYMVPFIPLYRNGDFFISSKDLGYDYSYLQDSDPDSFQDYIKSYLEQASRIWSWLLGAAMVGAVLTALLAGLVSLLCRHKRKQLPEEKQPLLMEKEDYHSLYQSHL
Test: Measurement of dopa oxidase activity (MBTH method) in lysate of treated melanocytes
Format: cell-based
Details: read-out: Dopa oxidase activity (%)
Method: 100 μL of human neonatal foreskin-derived melanocytes were inoculated on each well of a 96-well plate to be a cell density of 1×10^4 cells/well. The medium used therein was Medium 254 to which HMGS (Human Melanocyte Growth Supplement) excluding PMA (all manufactured by Cascade Biologics Inc.) was added.
After culturing the cells for 24 hours, endothelin-1 (ET-1) which is a melanocyte activator, stem cell growth factor (SCF), α-melanocyte stimulating hormone (α-MSH), histamine and prostaglandin E2 (PGE2) were mixed and added to the each culture at a final concentration in medium of 10×10^−7 mol/m^3 in each. […]
The melanocytes which had been used in the measurement of the cell proliferation activity were washed with Phosphate-buffered saline (PBS) from which Ca^2+ and Mg^2+ had been eliminated, and 20 μL/well of an extraction buffer (0.1 M Tris-HCl (pH 7.2), 1% Nonidet P-40, 0.01% SDS, 100 μM phenylmethylsulfonyl fluoride (PMSF) and 1 μg/ml aprotinin) and 20 μL/well of an assay buffer (100 mM Sodium phosphate-buffer (pH 7.1) containing 4% dimethylformamide) were added to the cells. The cells were lysed for 3 hours at 4° C., and its dopa oxidase activity was measured. […]
Further, the values of the dopa oxidase activity are indicated as values relative to the absorbances of the instances where various plant extracts were not added. […]

CC(=O)O[C@@H]1C[C@H](O)[C@@]23CO[C@@H](O)[C@]1(C)[C@@H]2C[C@@H](O)[C@]1(C)[C@@H]3C(=O)[C@H](OC(C)=O)[C@@]2(C)[C@H](c3ccoc3)C[C@H]3O[C@]321 [Toosendanin]
activity at 0.1 µM: 15%
